According to publication PMC6941124 (International Journal of Molecular Sciences, 2019):
Numbering of substitutions follows the chain as printed.

How the values were obtained:
[1] = test system: HeLa CK1δ−/− cells; assay: MTT viability assay, HeLa CK1δ−/− cells; format: cell-based; settings: 48 h; for Effects on cell viability of CK1δ−/− cells compared to parental and/or CK1δ+/+ cells: 25 μM
Method: (§1) Parental HeLa cells, as well as HeLa CSNK1D knock-out cells (CK1δ^−/−) (generated by CRISP/Cas9 technology and provided by EDIGENE, Beijing, China), were cultured in Dulbecco’s Modified Eagle medium (DMEM). HCT-116 and HT-29 colon cancer cells were cultured in McCoy’s 5A medium whereas SW480 and SW620 colon cancer cells were cultured in Leibovitz’s L-15 medium. All media were supplemented with 10% (v/v) fetal bovine serum (FBS), 100 units/mL penicillin, and 100 µg/mL streptomycin. DMEM-based medium for the culture of HeLa CSNK1D knock-out cells was additionally supplemented with 1 μg/mL puromycin. Cell cultures were maintained at 37 °C in a humidified atmosphere containing 5% CO2. Cells were transfected using Effectene transfection reagent (Qiagen, Hilden, Germany) according to the manufacturer’s instructions. For selection of stably transfected clones, transfected cells were grown in selective medium, containing 0.6 mg/mL of G-418 (Calbiochem-Merck Millipore, Darmstadt, Germany).
(§2) For performing MTT viability assays, cells were seeded in a 96-well plate (5 × 10^4 cells/well for HeLa cells (parental, CK1δ^−/−, or CK1δ^−/− cells stably transfected with wild type or mutant CK1δ), HCT-116, and HT-29 cells or 7.5 × 10^4 cell/well for SW480 and SW620 cells). After 24 h, old medium was replaced with fresh medium containing either the small molecule of interest or DMSO as control. After 48 h of treatment, 10 μL MTT (5 mg/mL) was added and incubated at 37 °C for 4 h. The medium was then gently removed and 100 μL of acidic isopropanol was added (90% (v/v) isopropanol, 10% (v/v) 1 N HCl). Cell culture plates were then shaken for 30 min at room temperature. Absorbance was measured at 570 nm with TriStar^2 LB942 Microplate Reader (Berthold Technologies, Bad Wildbad, Germany) and data analysis was performed using GraphPad Prism 6 (GraphPad Software, San Diego, CA, USA).

[2] = target: CK1γ; assay: in vitro kinase assay, CK1γ; format: biochemical; settings: 10 µM inhibitor, initial screening
[3] = target: CK1δ wild type (GST-CK1δ) (Homo sapiens, UniProt P48730); assay: in vitro kinase assay, GST-CK1δ wild type; format: biochemical; settings: for Kinase activity of CK1δ in presence of inhibitor: 10 µM inhibitor, initial screening; for IC50: dilution series 0.005−10 µM, mean ± standard error, triplicate
Method: (§3) Overexpression and purification of GST-CK1δ fusion proteins, either wild type or mutant, were performed as described previously.
(§4) Each kinase assay reaction was performed in kinase buffer (25 mM Tris-HCl (pH 7.5), 10 μM ATP, 10 mM MgCl2, 100 μM EDTA) in presence of purified GST-CK1δ kinase as source of enzyme (either wild type or mutant), an assay-specific substrate (α-casein, GST-p53^1−64, or GST-β-catenin^1−181), and radiolabeled ATP (2 μCi [γ-^32P]-ATP). For performing Michaelis–Menten analysis increasing substrate concentrations were used (α-casein: 0.39−25 μM; GST-p53^1−64: 0.09−1.87 μM; GST-β-catenin^1−181: 0.07−1.32 μM). For biological evaluation of small molecule inhibitors (SMIs), each inhibitor compound was either tested at 10 μM concentration for initial screening or by using a dilution series (0.005−10 µM) for determination of IC50 values. DMSO was used as control. Reactions were incubated for 30 min at 30 °C and reactions were stopped using 5x SDS-loading buffer (250 mM Tris-HCl [pH 6.8], 25% (v/v) β-mercaptoethanol (MSH), 50% (v/v) glycerol, 10% (w/v) SDS, 0.5% (w/v) bromphenol blue). Subsequently, samples were separated by SDS-PAGE using 12.5% acrylamide gels, stained with Coomassie, and phosphorylated substrates were visualized on X-ray film. Incorporation of radiolabeled phosphate was quantified by scintillation counting of Coomassie-stained substrate bands. Defined dilutions of the reaction master mix were counted as well in order to convert results obtained as counts per minute (CPM) to units of transferred phosphate in pmol/min. Michaelis–Menten analysis was performed using GraphPad Prism 6 (GraphPad Software, San Diego, CA, USA).

[4] = test system: parental HeLa cells; assay: MTT viability assay, parental HeLa cells; format: cell-based; settings: 25 μM, 48 h
Method: as §1, with “For selection of stably transfected clones, transfected cells were grown in selective medium, containing 0.6 mg/mL of G-418 (Calbiochem-Merck Millipore, Darmstadt, Germany).” left out
(§5) For performing MTT viability assays, cells were seeded in a 96-well plate (5 × 10^4 cells/well for HeLa cells (parental, CK1δ^−/−, or CK1δ^−/− cells stably transfected with wild type or mutant CK1δ), HCT-116, and HT-29 cells or 7.5 × 10^4 cell/well for SW480 and SW620 cells). […] Absorbance was measured at 570 nm with TriStar^2 LB942 Microplate Reader (Berthold Technologies, Bad Wildbad, Germany) and data analysis was performed using GraphPad Prism 6 (GraphPad Software, San Diego, CA, USA).

[5] = target: T1, CK1δ T67S (Homo sapiens, UniProt P48730, T67S); assay: in vitro kinase assay, CK1δ mutant T67S; format: biochemical; settings: 10 µM inhibitor, Figure 5a
T1 sequence (P48730 1-415 T67S): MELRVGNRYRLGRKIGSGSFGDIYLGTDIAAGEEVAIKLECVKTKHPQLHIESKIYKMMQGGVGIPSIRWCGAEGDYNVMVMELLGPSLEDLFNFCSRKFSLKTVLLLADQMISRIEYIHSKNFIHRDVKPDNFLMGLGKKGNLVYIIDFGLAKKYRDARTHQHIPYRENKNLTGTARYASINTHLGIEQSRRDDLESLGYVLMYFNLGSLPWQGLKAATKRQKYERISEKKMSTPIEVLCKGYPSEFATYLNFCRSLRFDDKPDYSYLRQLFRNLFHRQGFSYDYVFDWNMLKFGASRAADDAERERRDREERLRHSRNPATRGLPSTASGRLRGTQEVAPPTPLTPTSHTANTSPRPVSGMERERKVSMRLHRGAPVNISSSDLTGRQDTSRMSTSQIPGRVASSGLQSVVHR
Method: as §3, §4

[6] = target: CK1ε (Homo sapiens, UniProt P49674); assay: in vitro kinase assay, CK1ε; format: biochemical; settings: 10 µM inhibitor, initial screening
[7] = target: T2, CK1δ R127Q (Homo sapiens, UniProt P48730, R127Q); assay: in vitro kinase assay, CK1δ mutant R127Q; format: biochemical; settings: 10 µM inhibitor, Figure 5b
T2 sequence (P48730 1-415 R127Q): T1 sequence (P48730 1-415 T67S) with S67T, R127Q
Method: as §3, §4

[8] = target: CK1α (Homo sapiens, UniProt P48729); assay: in vitro kinase assay, CK1α; format: biochemical; settings: 10 µM inhibitor, initial screening
[9] = target: T3, CK1δ R168H (Homo sapiens, UniProt P48730, R168H); assay: in vitro kinase assay, CK1δ mutant R168H; format: biochemical; settings: 10 µM inhibitor, among 16-19, Figure 5c
T3 sequence (P48730 1-415 R168H): T1 sequence (P48730 1-415 T67S) with S67T, R168H
Method: as §3, §4

[10] = test system: HeLa CK1δ−/− cells expressing CK1δ T67S; assay: MTT viability assay, HeLa CK1δ−/− cells expressing CK1δ T67S; format: cell-based; settings: 10 μM, 48 h
Method: as §1, with “For selection of stably transfected clones, transfected cells were grown in selective medium, containing 0.6 mg/mL of G-418 (Calbiochem-Merck Millipore, Darmstadt, Germany).” left out
as §5

[11] = test system: HeLa CK1δ−/− cells expressing CK1δ R127Q; assay: MTT viability assay, HeLa CK1δ−/− cells expressing CK1δ R127Q; format: cell-based; settings: 10 μM, 48 h, difference not statistically significant
Method: as §1, with “For selection of stably transfected clones, transfected cells were grown in selective medium, containing 0.6 mg/mL of G-418 (Calbiochem-Merck Millipore, Darmstadt, Germany).” left out
as §5

[12] = test system: HeLa CK1δ−/− cells expressing CK1δ R168H; assay: MTT viability assay, HeLa CK1δ−/− cells expressing CK1δ R168H; format: cell-based; settings: 10 μM, 48 h
Method: as §1, with “For selection of stably transfected clones, transfected cells were grown in selective medium, containing 0.6 mg/mL of G-418 (Calbiochem-Merck Millipore, Darmstadt, Germany).” left out
as §5

[13] = test system: HeLa CK1δ+/+ cells (HeLa CK1δ−/− stably transfected with CK1δ); assay: MTT viability assay, HeLa CK1δ+/+ cells; format: cell-based; settings: 48 h; for Cell viability of CK1δ-expressing cells (HeLa parental or CK1δ+/+) compared to CK1δ-deficient cells (HeLa CK1δ−/−): 25 μM
Method: as §1, §2

[14] = test system: HT-29 colon cancer cells; assay: MTT viability assay, HT-29; format: cell-based; settings: 10 µM, 48 h, initial screening (Figure 10a)
Method: as §1, §2

[15] = test system: SW620 colon cancer cells; assay: MTT viability assay, SW620; format: cell-based, human; settings: 48 h
Method: as §1, §2

[16] = test system: SW480 colon cancer cells; assay: MTT viability assay, SW480; format: cell-based, human; settings: 10 µM, 48 h, initial screening (Figure 10a)
Method: as §1, §2

Chain of CK1α (P48729 whole entry): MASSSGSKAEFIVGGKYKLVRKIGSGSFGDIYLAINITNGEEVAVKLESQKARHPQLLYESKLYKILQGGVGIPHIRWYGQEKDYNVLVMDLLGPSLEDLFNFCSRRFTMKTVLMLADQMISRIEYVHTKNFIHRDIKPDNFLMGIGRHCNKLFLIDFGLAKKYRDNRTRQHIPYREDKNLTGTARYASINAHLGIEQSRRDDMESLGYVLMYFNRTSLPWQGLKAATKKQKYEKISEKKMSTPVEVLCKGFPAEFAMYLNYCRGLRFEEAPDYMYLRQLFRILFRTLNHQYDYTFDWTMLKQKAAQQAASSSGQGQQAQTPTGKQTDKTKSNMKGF
Chain of CK1ε (P49674 whole entry): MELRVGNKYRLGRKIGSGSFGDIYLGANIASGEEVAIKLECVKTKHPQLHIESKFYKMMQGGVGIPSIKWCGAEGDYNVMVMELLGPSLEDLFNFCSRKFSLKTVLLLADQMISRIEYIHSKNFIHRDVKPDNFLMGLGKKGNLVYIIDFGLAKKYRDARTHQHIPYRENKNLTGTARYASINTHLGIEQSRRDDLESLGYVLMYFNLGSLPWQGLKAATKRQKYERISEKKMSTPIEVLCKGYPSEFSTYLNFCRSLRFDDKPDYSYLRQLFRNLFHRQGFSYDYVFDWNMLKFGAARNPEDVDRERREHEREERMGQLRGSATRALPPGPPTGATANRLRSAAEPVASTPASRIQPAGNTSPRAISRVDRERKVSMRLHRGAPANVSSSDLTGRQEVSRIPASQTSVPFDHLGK
Chain of CK1δ wild type (GST-CK1δ) (P48730 whole entry, the tested form may be a part): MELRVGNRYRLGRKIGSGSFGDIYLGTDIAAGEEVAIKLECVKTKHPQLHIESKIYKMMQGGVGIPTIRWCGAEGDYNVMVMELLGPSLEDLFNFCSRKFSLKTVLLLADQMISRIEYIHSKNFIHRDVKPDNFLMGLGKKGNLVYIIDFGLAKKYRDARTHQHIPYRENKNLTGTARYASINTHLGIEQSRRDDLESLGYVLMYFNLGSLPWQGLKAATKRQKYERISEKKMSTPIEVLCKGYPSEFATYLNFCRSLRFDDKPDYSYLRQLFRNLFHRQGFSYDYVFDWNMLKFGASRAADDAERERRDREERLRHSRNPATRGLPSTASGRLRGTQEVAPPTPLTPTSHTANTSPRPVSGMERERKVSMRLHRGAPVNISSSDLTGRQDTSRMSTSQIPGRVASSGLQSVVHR

Compound	Effects on cell viability of CK1δ−/− cells compared to parental and/or CK1δ+/+ cells [1]	Kinase activity of CK1γ in presence of inhibitor [2]	Kinase activity of CK1δ in presence of inhibitor [3]	IC50 [3] [nM]	Effects on cell viability of parental HeLa cells, compared with compounds 18 and 19 [4]	Inhibition of CK1δ T67S compared to wild type CK1δ [5]	Kinase activity of CK1ε in presence of inhibitor [6]	Kinase activity of CK1α in presence of inhibitor [8]	Cell viability of CK1δ-expressing cells (HeLa parental or CK1δ+/+) compared to CK1δ-deficient cells (HeLa CK1δ−/−) [13]	further results
O=C(CSc1nccc(=O)n1-c1ccccc1)Nc1nc2ccc(C(F)(F)F)cc2s1 [Compound 16, 2-((3-Phenyl-4-oxo-3,4-dihydropyrimidin-2-yl)thio)-N-(6-(trifluoromethyl)benzo-[d]thiazol-2-yl)acetamide]	not reduced	not affected	strongly inhibited	2000	less pronounced	slightly stronger	strongly inhibited	not affected	–	Inhibition of CK1δ R127Q kinase activity compared to wild type CK1δ [7]: significantly stronger inhibited
COc1ccc(OC)c(-n2c(SCC(=O)Nc3nc4ccc(C(F)(F)F)cc4s3)nccc2=O)c1 [Compound 17, 2-((3-(2,5-Dimethoxyphenyl)-4-oxo-3,4-dihydropyrimidin-2-yl)thio)-N-(6-(trifluoromethyl)benzo[d]thiazol-2-yl)acetamide]	not reduced	not affected	strongly inhibited	–	less pronounced	slightly stronger	strongly inhibited	not affected	–	–
COc1ccc(-n2c(SCC(=O)Nc3nc4ccc(C(F)(F)F)cc4s3)nccc2=O)c(OC)c1 [Compound 18, 2-((3-(2,4-Dimethoxyphenyl)-4-oxo-3,4-dihydropyrimidin-2-yl)thio)-N-(6-(trifluoromethyl)benzo[d]thiazol-2-yl)acetamide]	–	not affected	strongly inhibited	1700	–	slightly stronger	strongly inhibited	not affected	more reduced	EC50 ([1]; CK1, 0.313-70 µM, read-out: EC50 (CK1δ−/−), cell viability): 18500 nM; Effects on CK1δ R168H activity [9]: strongest effects; Effects on cell viability of CK1δ T67S-expressing HeLa cells vs CK1δ WT-expressing cells [10]: stronger effects; Effects on cell viability of CK1δ R127Q-expressing HeLa cells vs CK1δ WT-expressing cells [11]: stronger effects; Effects on cell viability of CK1δ R168H-expressing HeLa cells vs CK1δ WT-expressing cells [12]: stronger effects; EC50 ([13]; CK1, 0.313-70 µM, read-out: EC50 (CK1δ+/+), cell viability): 7400 nM
COc1cc(OC)cc(-n2c(SCC(=O)Nc3nc4ccc(C(F)(F)F)cc4s3)nccc2=O)c1 [Compound 19, 2-((3-(3,5-Dimethoxyphenyl)-4-oxo-3,4-dihydropyrimidin-2-yl)thio)-N-(6-(trifluoromethyl)benzo[d]thiazol-2-yl)acetamide]	–	not affected	strongly inhibited	–	–	–	strongly inhibited	not affected	more reduced	–
O=C(CSc1nccc(=O)n1Cc1ccc(C(F)(F)F)cc1)Nc1nc2ccc(C(F)(F)F)cc2s1 [Compound 21, 2-((3-(4-Trifluoromethylbenzyl)-4-oxo-3,4-dihydropyrimidin-2-yl)thio)-N-(6-(trifluoromethyl)benzo[d]thiazol-2-yl)acetamide]	–	not affected	strongly inhibited	120	–	–	strongly inhibited	–	–	Reduction of cell viability, HT-29 [14]: minor changes; Reduction of cell viability, SW620 ([15]; 10 µM, initial screening (Figure 10a)): ~50%; Dose-dependent effects on SW620 cell viability ([15]; 0.625 to 20 µM, MTT (Figure S2)): only visible at the highest concentrations tested; Reduction of cell viability, SW480 [16]: minor changes; Reduction of CK1α activity [8]: at least 50%
